Experimental findings from patent publication US11370785B2, “Multicyclic compounds as farnesoid X receptor modulators” (BRISTOL-MYERS SQUIBB COMPANY, priority 2017, dated 2022) are described below.

The term EC50 denotes the concentration giving half of the maximal effect.

The target in one experiment is T1, human FXR (Homo sapiens, UniProt Q96RI1).
T1 construct: expressed in transfected cells; host or cells: HEK293 cells stably carrying a 5xGal4-response-element firefly luciferase reporter, transiently transfected with the pcDNA3.1-Gal4-FXR plasmid
T1 sequence (Q96RI1 262-486 limits assumed): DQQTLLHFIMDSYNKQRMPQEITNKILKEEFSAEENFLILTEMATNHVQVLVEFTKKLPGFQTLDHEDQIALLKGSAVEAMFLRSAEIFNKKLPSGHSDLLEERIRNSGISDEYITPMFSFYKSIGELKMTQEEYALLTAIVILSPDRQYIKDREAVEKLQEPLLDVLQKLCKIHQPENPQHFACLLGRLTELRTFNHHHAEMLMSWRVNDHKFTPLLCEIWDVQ
The experiment can be described thus: transient human FXR/Gal4-luciferase reporter assay. The experiment is classed as cell-based. As to conditions: Gal4-hFXR reporter in HEK293 cells; read-out: HLE GAL-FXR EC50. As for the experimental part:
The exemplified compounds of the present invention were tested in the transient human FXR/Gal4-luciferase reporter assay, and assay results were reported in Table 1 together with other analytical data.
A Gal4-hFXR fusion construct reporter system was used as the primary assay to characterize compound activity. A construct including 5 copies of the Gal4 promoter response element upstream of a firefly luciferase reporter cDNA was stably expressed in HEK293 cells. This reporter cell line was maintained in Dulbecco's Modified Eagle's medium (DMEM; Gibco) supplemented with 1% penicillin-streptomycin (P/S) solution, 500 μg/mL Zeocin and 10% charcoal/dextran-treated fetal bovine serum (cs-FBS) at 37° C. in a humidified 5% CO2 atmosphere. Another plasmid was constructed in which the human cytomegalovirus promoter in the pcDNA3.1 vector directs the expression of the cDNA encoding a fusion protein comprised of the DNA binding domain from the Gal4 transcription factor fused to the ligand binding domain from human FXR.
The day prior to transfection, the reporter cells in culture are detached from the plate with trypsin and plated into a T75 flask at a sufficient density to achieve approximately 90% confluence the next morning. The transfection reagents are prepared by separately diluting 25 μg of the pcDNA3.1-Gal4-FXR plasmid into 1.87 mL of Opti-MEM (Thermo-Fisher), and 40 μL of Lipofectamine 2000 (Thermo-Fisher) into 1.87 mL of Opti-MEM, and then adding the diluted DNA solution into the diluted Lipofectamine 2000 solution and incubating at room temperature for 15-20 minutes. The mixture is further diluted with 10 mL of a solution comprised of DMEM, 10% cs-FBS, and 1% P/S immediately prior to transferring to the cells. The maintenance culture media is aspirated from the cells and the final transfection mixture is added before the cells are incubated overnight at 37° C. in a humidified 5% CO2 atmosphere. This protocol can be scaled up, and the transiently transfected cells can be cryopreserved in an assay-ready format.
For compound testing, 100 nL of the compounds (serial dilutions in DMSO) are dispensed with an Echo acoustic dispenser (Labcyte) into the wells of a Corning/Costar clear bottom 384-well white plate. The transfected cells are harvested, counted, and diluted such that 10-25,000 cells in 25 μL are plated into each well of the 384-well compound assay plate. The compound-treated cells are incubated overnight at 37° C. in a humidified 5% CO2 atmosphere. The next morning 25 μL of Steady-Glo (Promega) are added to each well of the plate, the mixture is incubated for 15 min. with shaking, and luminescence is measured on an Envision (Perkin Elmer) plate reader. Background counts from cells treated with DMSO alone are subtracted from all raw counts, and the corrected values are converted to a percentage of the control response attained with 8 μM GW-4064.
For orientation: In a reporter assay the amount or activity of a reporter protein is the signal.
`Cc1cccc(Cl)c1-c1noc(C2CC2)c1C=C1CC2(CCN(S(=O)(=O)c3ccc(C(=O)O)cc3)CC2)C1` [Example 10, 4-((2-((3-(2-Chloro-6-methylphenyl)-5-cyclopropylisoxazol-4-yl)methylene)-7-azaspiro[3.5]nonan-7-yl)sulfonyl)benzoic acid]: the EC50 is 321 nM.
Turning to `O=C(O)c1cc(F)c2nc(N3CCC4(CC3)CC(=Cc3c(C5CC5)nnn3-c3c(Cl)cccc3Cl)C4)sc2c1` [Example 6, 2-(2-((4-Cyclopropyl-1-(2,6-dichlorophenyl)-1H-1,2,3-triazol-5-yl)methylene)-7-azaspiro[3.5]nonan-7-yl)-4-fluorobenzo[d]thiazole-6-carboxylic acid], the EC50 was found to be 402 nM.
The same measure, in the same setting: as for `O=C(O)c1cc(F)c2nc(N3CCC4(CC3)CC(=Cc3c(-c5c(Cl)cccc5Cl)noc3C3CC3)C4)sc2c1` [Example 1, 2-(2-((5-Cyclopropyl-3-(2,6-dichlorophenyl)isoxazol-4-yl)methylene)-7-azaspiro[3.5]nonan-7-yl)-4-fluorobenzo[d]thiazole-6-carboxylic acid], the figure is 41 nM.

Still in this experiment, the particulars now being: Gal4-hFXR reporter in HEK293 cells; relative to 8 μM GW-4064; read-out: FXR EC50.
`O=C(c1cc(OC2CCC2)c2cc(N3CCC4(CC3)CC(Cc3c(-c5ccccc5C(F)(F)F)noc3C3CC3)C4)ccc2n1)N1CCCCC1` [Example 189]: the EC50 came to 34 nM.
Same read-out and setting: as for `COc1cc(C(=O)O)nc2ccc(N3CCC4(CC3)CC(=Cc3c(-c5c(Cl)cncc5Cl)noc3C(F)(F)F)C4)cc12` [Example 161], the figure is 27 nM; as for `O=C(O)c1ncc(N2CCC3(CC2)CC(Cc2c(-c4ccccc4C(F)(F)F)noc2C2CC2)C3)cc1C(F)(F)F` [Example 156], 1670 nM.
On the same count and under the same terms, as for `O=C(O)c1ccc(CCN2CCC3(CC2)CC(=Cc2c(-c4c(Cl)cccc4Cl)noc2C2CC2)C3)cc1` [Example 44], the figure is 765 nM.
On the same count and under the same terms, then `CN(C)C(=O)c1cc(C(F)(F)F)c2cc(N3CCC4(CC3)CC(=Cc3c(-c5ccccc5C(F)(F)F)noc3C(F)(F)F)C4)ccc2n1` [Example 191], with 306 nM.
`COc1cc(C(=O)O)nc2ccc(N3CCC4(CC3)CC(Cc3c(-c5ccccc5OC(F)(F)F)noc3C3CC3)C4)cc12` [Example 71]: the half-maximal effective concentration (EC50) is 16 nM.
On the same count and under the same terms, then `C=Cc1cncc(C=C)c1-c1noc(C2CC2)c1C=C1CC2(CCN(c3nc4c(F)cc(C(=O)O)cc4s3)CC2)C1` [Example 165], with 1700 nM; and `COc1cc2nc(N3CCC4(CC3)CC(Cc3c(-c5ccccc5C(F)(F)F)noc3C3CC3)C4)sc2cc1C(=O)O` [Example 105], with 228 nM.
On the same count and under the same terms, as for `Cc1nc(C(=O)O)c2ccc(N3CCC4(CC3)CC(=Cc3c(-c5ccccc5C(F)(F)F)noc3C3CC3)C4)cn12` [Example 74], the figure is 114 nM; as for `O=C(O)c1ccc2cc(N3CCC4(CC3)CC(=Cc3c(-c5ccccc5C(F)(F)F)noc3C(F)(F)F)C4)ccc2n1` [Example 193], 502 nM; as for `O=C(O)C1(c2ccc(N3CCC4(CC3)CC(=Cc3c(-c5c(Cl)cccc5Cl)noc3C3CC3)C4)cc2)CCC1` [Example 42], 210 nM.
As for `CCOc1cc(C(N)=O)ncc1N1CCC2(CC1)CC(=Cc1c(-c3ccccc3C(F)(F)F)noc1C1CC1)C2` [Example 142], the EC50 was 189 nM.
Still for that read-out and setting: as for `Cc1cccc(Cl)c1-c1noc(C2CC2)c1C=C1CC2(CCN(c3ccc4cc(C(=O)O)ccc4c3)CC2)C1` [Example 55], the figure is 125 nM.
On the same count and under the same terms, as for `O=C(O)c1cc(OC(F)F)c2cc(N3CCC4(CC3)CC(=Cc3c(-c5c(Cl)cncc5Cl)noc3C3CC3)C4)ccc2n1` [Example 81], the figure is 3 nM.
Same read-out and setting: then `O=C(O)Cc1ccc(N2CCC3(CC2)CC(=Cc2c(-c4c(Cl)cccc4Cl)noc2C2CC2)C3)cc1` [Example 45], with 320 nM.
`Cc1nc(C(=O)O)c2ccc(N3CCC4(CC3)CC(Cc3c(-c5ccccc5C(F)(F)F)noc3C3CC3)C4)cn12` [Example 75]: the EC50 worked out at 1990 nM.
Consider `CN(C)C(=O)c1cc(F)c2nc(N3CCC4(CC3)CC(=Cc3c(-c5c(Cl)cncc5Cl)noc3C(F)(F)F)C4)sc2c1` [Example 192], for which the EC50 came out at 677 nM.
In the case of `COc1cc([N+](=O)[O-])ccc1S(=O)(=O)N1CCC2(CC1)CC(Cc1c(-c3c(Cl)cccc3Cl)noc1C1CC1)C2` [Example 175], the EC50 came out at 1500 nM.
Same read-out and setting: as for `COCCOc1cc(C(=O)O)nc2ccc(N3CCC4(CC3)CC(=Cc3c(-c5ccccc5C(F)(F)F)noc3C3CC3)C4)cc12` [Example 98], the figure is 38 nM; as for `O=C(O)c1ccc(N2CCC3(CC2)CC(=Cc2c(C4CC4)cnn2-c2c(Cl)cccc2Cl)C3)nc1` [Example 22], 4700 nM; as for `O=C(O)c1cc(F)c2nc(N3CCC4(CC3)CC(=Cc3c(-c5c(Cl)cccc5Cl)noc3C(F)(F)F)C4)sc2c1` [Example 126], 68 nM.
In the case of `O=C(O)c1cn(C(F)F)c2cc(N3CCC4(CC3)CC(=Cc3c(-c5c(Cl)cncc5Cl)noc3C3CC3)C4)ccc12` [Example 77], the EC50 came to 40 nM.
Consider `O=C(O)c1cc(C(F)(F)F)c2cc(N3CCC4(CC3)CC(=Cc3c(-c5c(Cl)cncc5Cl)noc3C(F)(F)F)C4)ccc2n1` [Example 153], for which the EC50 was 26 nM.
Consider `N#Cc1cnc(N2CCC3(CC2)CC(Cc2c(-c4c(Cl)cccc4Cl)noc2C2CC2)C3)s1` [Example 170], for which the EC50 was 1200 nM.
Regarding `COCCOc1cc(C(=O)O)nc2ccc(N3CCC4(CC3)CC(=Cc3c(-c5c(Cl)cncc5Cl)noc3C(F)(F)F)C4)cc12` [Example 162], the EC50 turned out to be 37 nM.
Consider `O=C(O)c1ccc2nc(N3CCC4(CC3)CC(Cc3c(-c5ccccc5C(F)(F)F)noc3C3CC3)C4)sc2n1` [Example 114], for which the EC50 amounted to 744 nM.
The same measure, in the same setting: as for `CC(C)Oc1cc(C(=O)O)nc2ccc(N3CCC4(CC3)CC(=Cc3c(-c5ccccc5C(F)(F)F)noc3C3CC3)C4)cc12` [Example 83], the figure is 5 nM; as for `O=C(O)c1cc(OCCO)c2cc(N3CCC4(CC3)CC(Cc3c(-c5ccccc5C(F)(F)F)noc3C3CC3)C4)ccc2n1` [Example 94], 472 nM; as for `CC(C)Oc1cc(C(=O)O)nc2ccc(N3CCC4(CC3)CC(Cc3c(-c5ccccc5C(F)(F)F)noc3C3CC3)C4)cc12` [Example 84], 19 nM.
Same read-out and setting: then `COc1cc2nc(N3CCC4(CC3)CC(=Cc3c(-c5ccccc5C(F)(F)F)noc3C3CC3)C4)sc2cc1C(=O)O` [Example 104], with 667 nM; and `O=C(O)c1cc(OC2CCCC2)c2cc(N3CCC4(CC3)CC(Cc3c(-c5ccccc5C(F)(F)F)noc3C3CC3)C4)ccc2n1` [Example 123], with 6 nM.
In the case of `O=C(O)c1cc(OC(F)(F)F)c2nc(N3CCC4(CC3)CC(=Cc3c(-c5c(Cl)cncc5Cl)noc3C3CC3)C4)sc2c1` [Example 101], the EC50 turned out to be 33 nM.
On the same count and under the same terms, as for `O=C(c1cc(OC2CCC2)c2cc(N3CCC4(CC3)CC(Cc3c(-c5ccccc5C(F)(F)F)noc3C3CC3)C4)ccc2n1)N1CCCC1` [Example 188], the figure is 76 nM; as for `O=C(O)c1ccc2cc(N3CCC4(CC3)CC(Cc3c(-c5ccccc5C(F)(F)F)noc3C3CC3)C4)ccc2n1` [Example 32], 243 nM.
`CCN(CC)C(=O)c1cc(OC2CCC2)c2cc(N3CCC4(CC3)CC(Cc3c(-c5ccccc5C(F)(F)F)noc3C3CC3)C4)ccc2n1` [Example 183]: the EC50 stood at 51 nM.
The same measure, in the same setting: then `O=C(c1cc(OC2CCC2)c2cc(N3CCC4(CC3)CC(Cc3c(-c5ccccc5C(F)(F)F)noc3C3CC3)C4)ccc2n1)N1CCC(O)CC1` [Example 190], with 11 nM; and `O=C(O)c1cc(F)c2nc(N3CCC4(CC3)CC(Cc3c(-c5ccccc5OC(F)(F)F)noc3C3CC3)C4)sc2c1` [Example 91], with 410 nM.
Take `Cn1cc(C(=O)O)c2cnc(N3CCC4(CC3)CC(Nc3c(-c5c(Cl)cccc5Cl)noc3C3CC3)C4)nc21` [Example 19]: the EC50 is 305 nM.
Regarding `O=C(O)c1cc(F)c2nc(N3CCC4(CC3)CC(=Cc3c(-c5ccccc5C(F)(F)F)noc3C3CC3)C4)sc2c1` [Example 31], the EC50 was 173 nM.
